According to patent US10538555B2, “Macrocyclic inhibitors of the PD-1/PD-L1 and CD80(B7-1)/PD-L1 protein/protein interactions” (BRISTOL-MYERS SQUIBB COMPANY, priority 2014, dated 2020):
Read-outs that look alike come from different tables or passages of the source. *1 amine or outer side, *2 acyl side, *3 side chain or, on linkers, in order; H or OH if unused. Where a SMILES comes first, the peptide text is derived from it. Bridges are numbered along the chain shown (N, C = ends). [ ]: non-standard residue; d: D form. X5 = O=C(O)CC[C@H](N[*:1])C(=O)C1C[C@H](O)C[C@H]1C(=O)[*:2]; Phe(3,4,5-F3) = N[C@@H](Cc1cc(F)c(F)c(F)c1)C(=O)O; Phe(3,4-F2) = N[C@@H](Cc1ccc(F)c(F)c1)C(=O)O; NMePhe(4-F) = CN[C@@H](Cc1ccc(F)cc1)C(=O)O; Phe(4-F) = N[C@@H](Cc1ccc(F)cc1)C(=O)O; d(cisHyp) = O=C(O)[C@H]1C[C@@H](O)CN1; NMeY = CN[C@@H](Cc1ccc(O)cc1)C(=O)O; Hyp = O=C(O)[C@@H]1C[C@@H](O)CN1; NMeF = CN[C@@H](Cc1ccccc1)C(=O)O; X1 = O=C([C@H]1COCCN1[*:1])[*:2]; dNMeF = CN[C@H](Cc1ccccc1)C(=O)O; dPip(4-aza) = O=C(O)[C@H]1CNCCN1; 4Pal = N[C@@H](Cc1ccncc1)C(=O)O; NMeE = CN[C@@H](CCC(=O)O)C(=O)O; dHyp = O=C(O)[C@H]1C[C@H](O)CN1; NMehSer = CN[C@@H](CCO)C(=O)O; NMeNle = CCCC[C@H](NC)C(=O)O; NMeV = CN[C@H](C(=O)O)C(C)C; Pip = O=C(O)[C@@H]1CCCCN1; dPip = O=C(O)[C@H]1CCCCN1; NMeA = CN[C@@H](C)C(=O)O; Orn = NCCC[C@H](N)C(=O)O; Dab = NCC[C@H](N)C(=O)O; Dap = NC[C@H](N)C(=O)O; Sar = CNCC(=O)O

Target: T1, Human PD-L1/PD-1 (Homo sapiens, UniProt Q9NZQ7)
T1 construct: TVMV protease cleavage site (C); made in house; host or cells: HEK293T cells
Experiment: HTRF Human PD-L1/PD-1 binding assay (PD-1-Ig/PD-L1-His)
Details: PD-L1-His 10 nM, PD-1-Ig 20 nM
Procedure, shortened: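 Compound preincubated 15 min with PD-L1-His (10 nM final), then PD-1-Ig (20 nM final) added for 15 min in dPBS with 0.1% BSA and 0.05% Tween-20. Detection by Eu-cryptate anti-Ig (1 nM) and APC anti-His (20 nM) after 30 min; 665/620 nm HTRF ratio. Proteins expressed in HEK293T.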

[1] = class symbol, read-out: HTRF Human PD-L1/PD-1 Binding Assay IC50 Range

T1 sequence (Q9NZQ7 with tags, fused parts or gaps): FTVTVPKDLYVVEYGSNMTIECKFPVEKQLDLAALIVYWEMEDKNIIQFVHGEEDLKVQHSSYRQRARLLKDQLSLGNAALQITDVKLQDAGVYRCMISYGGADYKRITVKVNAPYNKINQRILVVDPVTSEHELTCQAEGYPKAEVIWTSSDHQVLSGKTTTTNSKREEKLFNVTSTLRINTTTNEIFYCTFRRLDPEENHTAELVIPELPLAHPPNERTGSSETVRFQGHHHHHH

Structure (SMILES) | IC50 (read-out: HTRF Human PD-L1/PD-1 Binding Assay IC50) [nM] | IC50 [1] [nM]
CCCC[C@H]1C(=O)N2C[C@H](O)C[C@@H]2C(=O)N[C@@H](CC(=O)O)C(=O)N[C@@H](C(C)C)C(=O)N(C)[C@@H](Cc2ccccc2)C(=O)N[C@@H](CCC(N)=O)C(=O)N2C[C@H](O)C[C@@H]2C(=O)N[C@@H](Cc2c[nH]c3ccccc23)C(=O)N[C@@H](Cc2ccc(O)cc2)C(=O)N[C@@H](CN)C(=O)N[C@H](C(=O)NCC(N)=O)CSCC(=O)N[C@@H](Cc2cc(F)c(F)c(F)c2)C(=O)N(C)[C@@H](Cc2ccccc2)C(=O)N1C [Example 9356] ({CH2CO}-[Phe(3,4,5-F3)][NMeF][NMeNle][d(cisHyp)]DV[NMeF]Q[d(cisHyp)]WY[Dap]CG-NH2; thioether N-13) | 151 | –
CCCC[C@H]1C(=O)N2CCC[C@@H]2C(=O)N[C@@H](CC(=O)O)C(=O)N[C@@H](C(C)C)C(=O)N(C)[C@@H](Cc2ccccc2)C(=O)N[C@@H](CC(=O)O)C(=O)N2CCCC[C@@H]2C(=O)N[C@@H](Cc2c[nH]c3ccccc23)C(=O)N[C@@H](Cc2ccc(O)cc2)C(=O)N[C@@H](CC(N)=O)C(=O)N[C@H](C(=O)NCC(N)=O)CSCC(=O)N[C@@H](Cc2cc(F)c(F)c(F)c2)C(=O)N(C)[C@@H](Cc2ccc(F)cc2)C(=O)N1C [Example 10574] ({CH2CO}-[Phe(3,4,5-F3)][NMePhe(4-F)][NMeNle][dP]DV[NMeF]D[dPip]WYNCG-NH2; thioether N-13) | – | 1 to 9.9
CC(C)C[C@@H]1NC(=O)[C@H](Cc2ccc(O)cc2)NC(=O)[C@H](Cc2c[nH]c3ccccc23)NC(=O)[C@H]2CCCCN2C(=O)[C@H](CCC(=O)O)NC(=O)[C@H](Cc2ccccc2)N(C)C(=O)[C@H](C(C)C)NC(=O)[C@H](CC(=O)O)NC(=O)[C@H]2CCCN2C(=O)[C@H](Cc2ccc(O)cc2)N(C)C(=O)[C@H](Cc2ccc(F)cc2)N(C)C(=O)[C@H](Cc2cc(F)c(F)c(F)c2)NC(=O)CSC[C@@H](C(=O)NCC(N)=O)NC1=O [Example 10611] ({CH2CO}-[Phe(3,4,5-F3)][NMePhe(4-F)][NMeY][dP]DV[NMeF]E[dPip]WYLCG-NH2; thioether N-13) | – | 1 to 9.9
CCCC[C@H]1C(=O)N(C)[C@@H](CCCC)C(=O)N[C@@H](CCC(=O)O)C(=O)N[C@H](C(=O)NCC(N)=O)CSCC(=O)N[C@@H](Cc2ccc(O)cc2)C(=O)N(C)[C@@H](C)C(=O)N[C@@H](CC(N)=O)C(=O)N2CCC[C@H]2C(=O)N[C@@H](Cc2c[nH]cn2)C(=O)N[C@@H](CCC(=O)O)C(=O)N2C[C@H](O)C[C@H]2C(=O)N[C@@H](Cc2c[nH]c3ccccc23)C(=O)N[C@@H](CO)C(=O)N[C@@H](Cc2c[nH]c3ccccc23)C(=O)N1C [Example 5150] ({CH2CO}-Y[NMeA]NPHE[Hyp]WSW[NMeNle][NMeNle]ECG-NH2; thioether N-14) | – | 1 to 9.9
CCCC[C@H]1C(=O)N2C[C@H](O)C[C@@H]2C(=O)N[C@@H](CC(=O)O)C(=O)N[C@@H](C(C)C)C(=O)N(C)[C@@H](Cc2ccccc2)C(=O)N[C@@H](CCC(=O)O)C(=O)N2CCNC[C@@H]2C(=O)N[C@@H](Cc2c[nH]c3ccccc23)C(=O)N[C@@H](Cc2ccc(O)cc2)C(=O)N[C@@H](CC(C)C)C(=O)N[C@H](C(=O)NCC(N)=O)CSCC(=O)N[C@@H](Cc2cc(F)c(F)c(F)c2)C(=O)N(C)[C@@H](Cc2ccccc2)C(=O)N1C [Example 10163] ({CH2CO}-[Phe(3,4,5-F3)][NMeF][NMeNle][d(cisHyp)]DV[NMeF]E[dPip(4-aza)]WYLCG-NH2; thioether N-13) | – | 10 to 99.9
CCCC[C@H]1C(=O)N(C)[C@@H](CCCC)C(=O)N[C@@H](CCCNC(=N)N)C(=O)N[C@H](C(=O)NCC(N)=O)CSCC(=O)N[C@@H](Cc2ccc(OC)cc2)C(=O)N(C)[C@@H](C)C(=O)N[C@@H](CC(N)=O)C(=O)N2CCC[C@H]2C(=O)N[C@@H](Cc2cnc[nH]2)C(=O)N[C@@H](CCC(=O)O)C(=O)C2C[C@H](O)C[C@H]2C(=O)N[C@@H](Cc2c[nH]c3ccccc23)C(=O)N[C@@H](CCN)C(=O)N[C@@H](Cc2c[nH]c3ccccc23)C(=O)N1C (stereo partly drawn) [Example 7085] ({CH2CO}-Y(Me)[NMeA]NPH[X5]W[Dab]W[NMeNle][NMeNle]RCG-NH2; thioether N-13) | – | 1 to 9.9
CCCC[C@H]1C(=O)N(C)[C@@H](CCCC)C(=O)N[C@@H](CCCNC(=N)N)C(=O)N[C@H](C(=O)NCC(N)=O)CSCC(=O)N[C@@H](Cc2ccc(O)cc2)C(=O)N(C)[C@@H](C)C(=O)N[C@@H](CC(=O)O)C(=O)N2CCC[C@H]2C(=O)N[C@@H](Cc2c[nH]cn2)C(=O)N[C@@H](CC(C)C)C(=O)N2C[C@H](O)C[C@H]2C(=O)N[C@@H](Cc2c[nH]c3ccccc23)C(=O)N[C@@H](CCCCN)C(=O)N[C@@H](Cc2c[nH]c3ccccc23)C(=O)N1C [Example 11003] ({CH2CO}-Y[NMeA]DPHL[Hyp]WKW[NMeNle][NMeNle]RCG-NH2; thioether N-14) | – | 1 to 9.9
CCCC[C@H]1C(=O)N2C[C@H](O)C[C@@H]2C(=O)N[C@@H](CC(=O)O)C(=O)N[C@@H](C(C)C)C(=O)N(C)[C@@H](Cc2ccccc2)C(=O)N[C@@H](Cc2ccc(O)cc2)C(=O)N2CCOC[C@@H]2C(=O)N[C@@H](Cc2c[nH]c3ccccc23)C(=O)N[C@@H](Cc2ccc(O)cc2)C(=O)N[C@@H](CC(C)C)C(=O)N[C@H](C(=O)NCC(N)=O)CSCC(=O)N[C@@H](Cc2cc(F)c(F)c(F)c2)C(=O)N(C)[C@@H](CCC(=O)O)C(=O)N1C [Example 10177] ({CH2CO}-[Phe(3,4,5-F3)][NMeE][NMeNle][d(cisHyp)]DV[NMeF]Y[X1]WYLCG-NH2; thioether N-13) | – | 10 to 99.9
CCCC[C@H]1C(=O)N2C[C@@H](O)C[C@@H]2C(=O)N[C@@H](CC(=O)O)C(=O)N[C@@H](C(C)C)C(=O)N(C)[C@@H](Cc2ccccc2)C(=O)N[C@@H](CCC(=O)O)C(=O)N2C[C@@H](O)C[C@@H]2C(=O)N[C@@H](Cc2c[nH]c3ccccc23)C(=O)N[C@@H](Cc2ccc(O)cc2)C(=O)N[C@@H](CC(C)C)C(=O)N[C@H](C(=O)NCC(N)=O)CSCC(=O)N[C@@H](Cc2cc(F)c(F)c(F)c2)C(=O)N(C)[C@@H](Cc2ccccc2)C(=O)N1C [Example 9275] ({CH2CO}-[Phe(3,4,5-F3)][NMeF][NMeNle][dHyp]DV[NMeF]E[dHyp]WYLCG-NH2; thioether N-13) | – | 1 to 9.9
CCCC[C@H]1C(=O)N2C[C@H](O)C[C@@H]2C(=O)N[C@@H](CC(=O)O)C(=O)N[C@@H](C(C)C)C(=O)N(C)[C@@H](Cc2ccccc2)C(=O)N[C@@H](CC(=O)O)C(=O)N2C[C@H](O)C[C@@H]2C(=O)N[C@@H](Cc2c[nH]c3ccccc23)C(=O)N[C@@H](Cc2ccc(O)cc2)C(=O)N[C@@H](CC(=O)O)C(=O)N[C@H](C(=O)NCC(N)=O)CSCC(=O)N[C@@H](Cc2cc(F)c(F)c(F)c2)C(=O)N(C)[C@@H](Cc2ccccc2)C(=O)N1C [Example 9350] ({CH2CO}-[Phe(3,4,5-F3)][NMeF][NMeNle][d(cisHyp)]DV[NMeF]D[d(cisHyp)]WYDCG-NH2; thioether N-13) | – | 10 to 99.9
COCC[C@H]1C(=O)N2C[C@@H](O)C[C@@H]2C(=O)N[C@@H](CC(=O)O)C(=O)N[C@@H](C(C)C)C(=O)N(C)[C@H](Cc2ccccc2)C(=O)N[C@@H](Cc2ccc(O)cc2)C(=O)N2C[C@@H](O)C[C@@H]2C(=O)N[C@@H](Cc2c[nH]c3ccccc23)C(=O)N[C@@H](Cc2ccc(O)cc2)C(=O)N[C@@H](CCCN)C(=O)N[C@H](C(=O)NCC(N)=O)CSCC(=O)N[C@@H](Cc2ccc(F)c(F)c2)C(=O)N(C)[C@@H](Cc2ccccc2)C(=O)N1C [Example 9238] ({CH2CO}-[Phe(3,4-F2)][NMeF][NMehSer](Me)[dHyp]DV[dNMeF]Y[dHyp]WY[Orn]CG-NH2; thioether N-13) | – | 1 to 9.9
CCCC[C@H]1C(=O)N2CCC[C@@H]2C(=O)N[C@@H](CC(=O)O)C(=O)N[C@@H](C(C)C)C(=O)N(C)[C@@H](C(C)C)C(=O)N[C@@H](Cc2ccc(O)cc2)C(=O)N2CCC[C@@H]2C(=O)N[C@@H](Cc2c[nH]c3ccccc23)C(=O)N[C@@H](Cc2ccc(O)cc2)C(=O)N[C@@H](CC(C)C)C(=O)N[C@H](C(=O)NCC(N)=O)CSCC(=O)N[C@@H](Cc2ccc(F)cc2)C(=O)N(C)[C@@H](Cc2ccccc2)C(=O)N1C [Example 9241] ({CH2CO}-[Phe(4-F)][NMeF][NMeNle][dP]DV[NMeV]Y[dP]WYLCG-NH2; thioether N-13) | – | 1000 to 10000
CCCC[C@H]1C(=O)N(C)CC(=O)N[C@@H](CC(=O)O)C(=O)N[C@@H](C(C)C)C(=O)N(C)[C@@H](Cc2ccccc2)C(=O)N[C@@H](Cc2ccc(O)cc2)C(=O)N(C)CC(=O)N[C@@H](Cc2c[nH]c3ccccc23)C(=O)N[C@@H](Cc2ccc(O)cc2)C(=O)N[C@@H](CC(C)C)C(=O)N[C@H](C(=O)NCC(N)=O)CSCC(=O)N[C@@H](Cc2ccncc2)C(=O)N(C)[C@@H](Cc2ccccc2)C(=O)N1C [Example 3242] ({CH2CO}-[4Pal][NMeF][NMeNle][Sar]DV[NMeF]Y[Sar]WYLCG-NH2; thioether N-13) | – | 100 to 990
CCCC[C@H]1C(=O)N(C)[C@@H](CCCC)C(=O)N[C@@H](C)C(=O)N[C@H](C(=O)NCC(N)=O)CSCC(=O)N[C@@H](Cc2ccc(O)cc2)C(=O)N2CCNC[C@H]2C(=O)N[C@@H](CC(N)=O)C(=O)N2CCC[C@H]2C(=O)N[C@@H](Cc2cnc[nH]2)C(=O)N[C@@H](CCC(N)=O)C(=O)N2C[C@H](O)C[C@H]2C(=O)N[C@@H](Cc2c[nH]c3ccccc23)C(=O)N[C@@H](CO)C(=O)N[C@@H](Cc2c[nH]c3ccccc23)C(=O)N1C [Example 1275] | – | 1 to 9.9
CCCC[C@H]1C(=O)N(C)[C@@H](CCCC)C(=O)N[C@@H](C)C(=O)N[C@H](C(=O)NCC(N)=O)CSCC(=O)N[C@@H](Cc2ccc(O)cc2)C(=O)N2CCCC[C@H]2C(=O)N[C@@H](CC(=O)O)C(=O)N2CCC[C@H]2C(=O)N[C@@H](CN)C(=O)N[C@@H](CCC(=O)O)C(=O)N2C[C@H](O)C[C@H]2C(=O)N[C@@H](Cc2c[nH]c3ccccc23)C(=O)N[C@@H](CO)C(=O)N[C@@H](Cc2c[nH]c3ccccc23)C(=O)N1C [Example 1258] ({CH2CO}-Y[Pip]DP[Dap]E[Hyp]WSW[NMeNle][NMeNle]ACG-NH2; thioether N-14) | – | 1 to 9.9
